Counter-ions that a name gives are not always drawn. Like-named read-outs stand apart in the source and are kept apart here. Each block holds one molecule with its values, some of them ahead of it.
Tests used:
Type in all cases: cell-based
[1] = system: Aβ40 generation from APP in CHO cells stably expressing hAPP-REPNL751; experiment: Aβ-lowering electrochemiluminescent (MSD ECL) assay of conditioned media, Aβ40
Protocol: (§1) The activity of compounds in lowering the generation of Aβ40 and Aβ42, the most abundant forms of beta amyloid, from APP (amyloid precursor protein) was measured in an electrochemiluminescent (ECL) assay of conditioned media from chinese hamster ovary (CHO) cells stably expressing the human amyloid precursor protein (APP) reporter construct, hAPP-REPNL751 [Sughir, R. et al.; J. Biolog. Chem. (1992) 267: 25602-25608]. Aβ peptides were secreted at high levels into cell culture media by cells carrying the human APP transgene; compounds were tested for their capacity to modulate this production. The Aβ peptide in the conditioned medium was quantitated by a sandwich immunoassay with the Meso Scale Discovery® (MSD®) ECL detection system. Cell metabolism was measured using MTS salt kit (containing a tetrazolium compound 3-(4,5-dimethylthiazol-2-yl)-5-(3-carboxymethoxyphenyl)-2-(4-sulfophenyl)-2H-tetrazolium, inner salt; MTS(a) which measures the mitochondrial activity of cells by the bioreduction of Owen's reagent). This assay consists of the following protocol: • 1. Aβ-Lowering Assay. • a. hAPP-REPNL751 CHO cells were seeded into 96 well plates and incubated until about 60-70% confluence. • b. Medium was removed, cells were washed, and fresh serum-free medium (Ultraculture) was put on cells. • c. Compounds were diluted and then added to the cell medium. • d. Cells were incubated, with compounds, for indicated times. • e. Streptavidin coated Meso Scale Discover (MSD) plates (MSD standard Multi-Array™ 96 plate, cat. #P11SA-1) were washed 3× with TTBS (Tris-buffered saline, the Tween® 20 reagent). • f. 20 μL conditioned medium were removed from the cells, and added to the TTBS prewashed MSD® plates. • g. Standard curve dilutions of synthetic Aβ40 and Aβ42 were prepared and added to the MSD® plates. • h. A reagent mix was prepared in 1% MSD® Blocker A (appropriate concentration of biotinylated 6E10 antibody, detection antibodies to Aβ40, Aβ42, and MSD ruthinylated tag antibody). • i. 20 μL reagent mix was distributed to sample plate. • j. Plates were incubated with shaking overnight at 4° C. • k. Plates were washed 3× with TTBS. • l. 150 μL read buffer was added per well (MSD Read Buffer T, cat#R92TC-2, made 1× with distilled water). • m. Plates were read in MSD plate reader within 2 hours. • 2. MTS Assay: • a. Cells were seeded into 96 well plates and incubated until about 60-70% confluence. • b. Medium was removed, cells were washed, and fresh serum-free medium (Ultraculture) was put on cells. • c. Compounds were diluted and then added to the cell medium. • d. Cells were incubated, with compounds, for indicated times. • e. Using a robot, conditioned medium was removed from the cells, and transferred to a TTBS prewashed MSD plate. • f. Cells were washed 2× in phosphate buffered saline (PBS) and an MTS solution was plated onto the cells. After 1 hour, they were read on a plate reader at 560 nm to determine metabolic activity. • 3. Analysis of Results. • Assays were accepted or rejected based upon specific performance criteria, including regression coefficient of standard curve, adequate signal to noise ratio, sample signals lying within the range of the standard curve, etc. The specific parameters were established for each tissue type prior to performing an assay, and were included in the full analytical procedure. • Plate data from both assays (MTS and MSD ELISA) were transferred into a Microsoft Excel® spreadsheet to determine the toxicity, and inhibition caused by the compounds. Standard curves of Aβ were generated using LSW toolbar Hill slope model 42, with 1/y weighting (general sigmoidal curve with Hill slope, a to d; y=(a−d)/(1+(x/c)̂b)+d). […]

[2] = system: Aβ42 generation from APP in CHO cells stably expressing hAPP-REPNL751; experiment: Aβ-lowering electrochemiluminescent (MSD ECL) assay of conditioned media, Aβ42
Protocol: as §1

[3] = system: S3 (γ-secretase like) processing of Notch (Mouse Notch1 with deleted extracellular domain); experiment: Whole cell functional Notch assay (HES1-SEAP reporter, P8H6 CHO-K1 cells); details: Notch assay reference compounds, read-out: EC50 (Notch induced SEAP levels)
Excerpt: The activity of compounds in cleaving Notch can be measured in a whole cell functional Notch assay. This is an assay to determine the effects of compounds on the S3 (γ-secretase like) processing of Notch. […] SEAP transactivation is then detected by luminescent assay. The assay consists of the following protocol: • 1. Materials and Methods: • (a) Materials: The P8H6 inducible stable cell line was derived from T-REx™ CHO-K1, stably expressing Tet repressor, Notch (pZX1) and HES1-SEAP (pZX2) reporter constructs. A Wallace 1450® Victor Luminescence Counter is used to measure luminescent signal. […] For vehicle samples, the same volume of 0.2% DMSO/25 mM HEPES buffer was added. • Cells were incubated at 37° C., 5% CO2 for 48 hours. • SEAP levels in the conditioned media were assessed using the Clontech GreatEscAPe™ SEAP Chemiluminescence detection kit according to the manufacturer's instruction. […] After cooling, assay buffer was added, and the sample was incubated with the CSPD® substrate. • Luminescence was measured in a Wallace 1450 Victor luminescence counter. • 2. […] EC50 was calculated by […] using sigmoidal inhibition from B0 to nsb model (model 59). […] Inhibition of Notch processing was measured using the stable transfection reporter assay. […]

[4] = CHO, reference standards of the beta amyloid assay, read-out: EC50αβ42
[5] = electrochemiluminescent assay, hAPP-REPNL751 CHO cells, read-out: C40: EC50 for inhibition of Aβ40
[6] = electrochemiluminescent assay, hAPP-REPNL751 CHO cells, read-out: C42: EC50 for inhibition of Aβ42

SMILES: CC[C@H](CC(F)(F)F)[C@@H](CO)NS(=O)(=O)c1ccc(Cl)s1 [5-chloro-N-[(1S,2R)-2-ethyl-4,4,4-trifluoro-1-(hydroxymethyl)butyl]thiophene-2-sulfonamide, reference compound]
EC50 ([1]; CHO, reference standards of the beta amyloid assay, read-out: EC50αβ40): 6 nM | EC50 [2, 4]: 5 nM

EC50 [3]: 68 nM
SMILES: CC(C)[C@H](O)C(=O)N[C@@H](C)C(=O)N[C@@H]1C(=O)N(C)CCc2ccccc21 [(2S)-2-hydroxy-3-methyl-N-((1S)-1-methyl-2-{[(1S)-3-methyl-2-oxo-2,3,4,5-tetrahydro-1H-3-benzazepin-1-yl]amino}-2-oxoethyl)butanamide, reference compound]
EC50 [2, 4]: 79 nM

SMILES: O=S(=O)(O)OC[C@@H](NS(=O)(=O)c1ccc(Cl)s1)C(C(F)(F)F)C(F)(F)F [Example 1, (2S)-2-{[(5-chloro-2-thienyl)sulfonyl]amino}-4,4,4-trifluoro-3-(trifluoromethyl)butyl Hydrogen Sulfate, Sodium Salt]
EC50 [1, 5]: 447 nM | EC50 [2, 6]: 445 nM

SMILES: CC[C@@H](C)[C@@H](COS(=O)(=O)O)NS(=O)(=O)c1ccc(Cl)s1 [Example 2, (2S,3R)-2-{[(5-chloro-2-thienyl)sulfonyl]amino}-3-methylpentyl Hydrogen Sulfate, Sodium Salt]
EC50 [1, 5]: 15000 nM | EC50 [2, 6]: 15000 nM

SMILES: CCC(CC)[C@@H](COS(=O)(=O)O)NS(=O)(=O)c1ccc(Cl)s1 [Example 3, (2S)-2-{[(5-chloro-2-thienyl)sulfonyl]amino}-3-ethylpentyl Hydrogen Sulfate, Sodium Salt]
EC50 [1, 5]: 243 nM | EC50 [2, 6]: 234 nM

SMILES: CC[C@H](C)[C@@H](COS(=O)(=O)O)NS(=O)(=O)c1ccc(Cl)cc1 [Example 4, (2S,3S)-2-{[(4-chlorophenyl)sulfonyl]amino}-3-methylpentyl Hydrogen Sulfate, Sodium Salt]
EC50 [1, 5]: 15000 nM | EC50 [2, 6]: 15000 nM

SMILES: O=S(=O)(O)OC[C@@H](NS(=O)(=O)c1ccc(Cl)cc1)C(C(F)(F)F)C(F)(F)F [Example 5]
EC50 ([1]; CHO, read-out: C40: EC50 for inhibition of Aβ40): 4030 nM | EC50 ([2]; CHO, read-out: C42: EC50 for inhibition of Aβ42): 4150 nM

SMILES: O=S(=O)(O)OC[C@@H](NS(=O)(=O)c1ccc(Cl)s1)[C@@H](c1cc(F)cc(F)c1)C(F)(F)F [Example 6, (2S,3R)-2-{[(5-chloro-2-thienyl)sulfonyl]amino}-3-(3,5-difluorophenyl)-4,4,4-trifluorobutyl Hydrogen Sulfate, Sodium Salt]
EC50 [1, 5]: 1740 nM | EC50 [2, 6]: 1290 nM
